Patent US20240284907A1, “NOVEL DERIVATIVES OF NON-CODED AMINO ACIDS AND THEIR USE AS HERBICIDES” (FortePhest LTD., priority 2021, published 2024)

Legend:
Type in all cases: in vivo
[1] = test system: Seeds of Lettuce R. (Super-Jericho); assay: Filter paper bioassay with lettuce seeds: germination and early plant development, Minimal Effective Concentration (MEC); conditions: lettuce seeds on filter paper, 0 to 1 mmol/l, visually assessed after 6 days
Procedure, shortened: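 Visual scoring on day 6 of radicle and shoot growth gives the MEC, the lowest dose deviating from control (no germination or malformation). Seeds (lettuce Super-Jericho, 10 per plate) sat on filter paper with 0–1 mmol/l aqueous compound, 48 h dark then 4 days 6/18 dark/light, in at least two repeats.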

Amaranth = assay: Herbicidal effect on potted weeds, plant development score; conditions: soil application 1 mg/pot, scale 0 (dead plants) to 5 (healthy, as Control)
Experimental: (§1) Weed seeds were sawn in 0.3-liter pots, containing medium-heavy clay-loam soil from organic fields (55% clay, 23% silt, 20% sand, 2% organic matter, pH 7.1). The experiment was conducted in a completely randomized design. Each treatment was replicated 3 times (3 pots). Each compound was typically tested on crops (Corn, Wheat, Soy, Cotton, Oat, Chickpea) and weeds (Amaranth, Chenopodium, Lentils, Sinapis, Silybum).
(§2) The herbicides were applied at dose from 0 (control) to 5 mg/pot. The treatment was performed at the day of sawn (pre-emergence treatment). Then the pots were transferred to a mesh house 24 hours after herbicide application and were sprinkler irrigated to field capacity of the soil. Alternatively, the herbicides were applied on grown plants at stage 2-3 true leaves (post-emergence treatment).
(§3) The plants were grown in the mesh house during the entire experiment. Plant development at 6, 12, 19, 26 and 32 days after application (DAA) were evaluated on a scale of 0 to 5, in which 0 represents dead plants and 5 represents healthy plants similar or not different from Control. In the context of the invention, the herbicidal effect was expressed as a score calculated as an average of assessments of plants vigor, height, and leaf color.

Silybum = assay: as above; conditions: soil application 1 mg/pot, scale 0 (dead plants) to 5 (healthy, as Control)
Experimental: as §1, §2, §3

Sinapis = assay: as above; conditions: soil application 1 mg/pot, scale 0 (dead plants) to 5 (healthy, as Control)
Experimental: as §1, §2, §3

Chenopodium = assay: as above; conditions: soil application 1 mg/pot, scale 0 (dead plants) to 5 (healthy, as Control)
Experimental: as §1, §2, §3

Lentils = assay: as above; conditions: soil application 1 mg/pot, scale 0 (dead plants) to 5 (healthy, as Control)
Experimental: as §1, §2, §3

[2] = test system: Romaine lettuce (Lactuca sativa L.) plants; assay: Post-emergence herbicidal activity on potted Romaine lettuce plants (soil or foliar application); conditions: lettuce at 2 to 3 leaves, two weeks after treatment
Experimental: (§4) The tests were performed on Romaine lettuce (Lactuca sativa L.) plants at the stage 2 to 3 leaves. The plants were grown in mini-pots packed with soil, dimensions 2×2×5 cm, one plant per mini-pot. Test compounds were dissolved in 0.1% aqueous solution water solution of Silwet adjuvant to final concentrations ranging from 0 (Control) to 0.0001%. The test compounds were applied on soil (1 ml per pot) or foliar with airbrush (0.1 ml per pot). Each concentration was tested on 20 plants. Two weeks after the treatment the herbicidal effects of the respective test material were visually evaluated (aboveground part and roots. Then the aboveground part of the plants was neatly cut and weighed (wet weight) to assess the growth inhibition caused by the test compound. The growth inhibition (GI) was calculated as following: […]
Where Mt and Mc are median wet weight of treated and control plants, respectively. In the context of the invention, the herbicidal effect was assessed by concentration of the compound causing more than 85% of Growth Inhibition (GI) or irreversible damage of the plants (Table 3). Herbicidal activity of selected DHAAs is summarized in Table 4 (soil application) and Table 5 (Foliar application).

[3] = test system: Romaine lettuce (Lactuca sativa L.) plants; assay: Comparison of NAA and DNAA: growth inhibition of potted Romaine lettuce plants; conditions: two weeks after treatment
Experimental: as §4, with “adjuvant. The test material where applied in rate” for “adjuvant to final concentrations ranging from”, “(Control), 0.01, 0.05, and 0.5 mg/pot.” for “(Control) to 0.0001%.”, “soil” for “soil (1 ml per pot)”
Where Mt and Mc are median wet weight of treated and control plants, respectively.

[4] = test system: Seeds of Lettuce R. (Super-Jericho); assay: Filter paper bioassay with lettuce seeds: germination, Fully Effective Concentration (FEC); conditions: lowest concentration mostly preventing lettuce seed germination, assessed after 6 days
Source text: Materials: Seeds of Lettuce R. (Super-Jericho, non-sterilized) were obtained from Ben Shahar Moshe Ltd., 99% purity. The test compounds listed in the Table 2 below were synthetized de novo or purchased from different vendors.
Filter Paper Bioassays with Lettuce seeds: The protocol is following Bertin et al. 2009 and Movellan et al. 2014 with specified modifications as described below.
Seeds were placed on Whatman no. 1 filter paper (Whatman, Middlesex, U.K.) in Petri dishes (10 seeds per plate) with 2.0 ml of aqueous solution of a test material in concentration ranged from 0 (control) to 1 mmol/l were placed in a tray tilted at 45°. The trays were kept in dark for 48 hours and then transferred to the growth chamber with 6/18 dark/light cycle for 4 days. Each experiment was performed at least with two repeats.
The development of plants' radicle and shoots were visually assessed 6 days after the beginning of the test to determine Fully Effective Concentration (FEC) of a test material. In the context of the invention, FED is defined as the lowest concentration level of a test material that mostly preventing seeds germination.

[5] = foliar application, 0.05 mg/pot
[6] = foliar application, 0.50 mg/pot

Compound | Score (activity score of Minimal Effective Concentration, MEC) [1] | Score (test material causing more than 85% of Growth Inhibition or irreversible plant damage) ([2]; soil application) | Herbicidal effect, growth application (%) [3, 5] [%] | Herbicidal effect, growth application (%) [3, 6] [%] | Herbicidal effect, growth application (%) ([3]; soil application, 0.01 mg/pot) | Herbicidal effect, growth application (%) ([3]; soil application, 0.05 mg/pot) | Herbicidal effect, growth application (%) ([3]; soil application, 0.50 mg/pot) | FEC (Fully Effective Concentration) [4] [mM] | Score (test material causing more than 85% of Growth Inhibition or irreversible plant damage) ([2]; foliar application) | further results
2,2-difluoro-2-[6-(trifluoromethyl)pyridin-2-yl]acetic acid [compound 6651] | Strong (0.01 mM) | moderate (0.5) |  |  |  |  |  |  |  | Average Herbicidal Effect, Amaranth (Amaranth; post-emergence): 0.5; Average Herbicidal Effect, Amaranth (Amaranth; pre-emergence): 5.0; Average Herbicidal Effect, Silybum (Silybum; post-emergence): 2.0; Average Herbicidal Effect, Silybum (Silybum; pre-emergence): 4.0; Average Herbicidal Effect, Sinapis (Sinapis; post-emergence): 2.0; Average Herbicidal Effect, Chenopodium (Chenopodium; post-emergence): 0.5; Average Herbicidal Effect, Chenopodium (Chenopodium; pre-emergence): 1.5; Average Herbicidal Effect, Lentils (Lentils; pre-emergence): 0.0
2-(2-chlorothiophen-3-yl)-2,2-difluoroacetic acid [compound 5623] | Strong (0.01 mM) | strong (0.01 to 0.05) | 91 | 97 | 34 | 79 | 98 | 1.000 | strong (0.01 to 0.05) | 
NC(Cc1ccsc1Cl)C(=O)O (stereo not shown) [compound 516] |  |  | 0 | 0 | 0 | 0 | 38 |  |  | 
NC(Cc1cc(Cl)sc1Cl)C(=O)O (stereo not shown) [compound 517] |  |  | 0 | 29 | 0 | 25 | 75 |  |  | 
NC(Cc1nc(Cl)sc1Cl)C(=O)O (stereo not shown) [compound 527] |  |  | 0 | 44 | 0 | 11 | 90 |  |  | 
NC(Cc1ccnc(Br)c1)C(=O)O (stereo not shown) [compound 632] |  |  | 0 | 8 | 0 | 13 | 21 |  |  | 
CCOC(=O)C(F)(F)c1cc(Cl)sc1Cl [compound 5643, ethyl(2,5-dichlorothiophen-3-yl)(difluoro)acetate] | Moderate (0.1 mM) |  |  |  |  |  |  |  |  | Average Herbicidal Effect, Amaranth (Amaranth; post-emergence): 4.0; Average Herbicidal Effect, Amaranth (Amaranth; pre-emergence): 0.5; Average Herbicidal Effect, Silybum (Silybum; post-emergence): 3.0; Average Herbicidal Effect, Silybum (Silybum; pre-emergence): 0.0; Average Herbicidal Effect, Sinapis (Sinapis; post-emergence): 5.0; Average Herbicidal Effect, Sinapis (Sinapis; pre-emergence): 5.0; Average Herbicidal Effect, Chenopodium (Chenopodium; post-emergence): 5.0; Average Herbicidal Effect, Chenopodium (Chenopodium; pre-emergence): 4.0; Average Herbicidal Effect, Lentils (Lentils; post-emergence): 4.0; Average Herbicidal Effect, Lentils (Lentils; pre-emergence): 5.0
CCOC(=O)Cc1cc(Cl)sc1Cl [compound 5668, ethyl (2,5-dichlorothiophen-3-yl)acetate] |  | strong (0.01 to 0.05) |  |  |  |  |  |  |  | Average Herbicidal Effect, Amaranth (Amaranth; pre-emergence): 3.0; Average Herbicidal Effect, Silybum (Silybum; pre-emergence): 5.0; Average Herbicidal Effect, Sinapis (Sinapis; pre-emergence): 5.0; Average Herbicidal Effect, Chenopodium (Chenopodium; pre-emergence): 2.0; Average Herbicidal Effect, Lentils (Lentils; pre-emergence): 4.0
O=C(O)C(F)(F)c1csc(C(F)(F)F)n1 [compound 5679, 2,2-difluoro-2-[2-(trifluoromethyl)-1,3-thiazol-4-yl]acetic acid] | very strong | strong (0.01 to 0.05) |  |  |  |  |  |  | strong (0.01 to 0.05) | Average Herbicidal Effect, Amaranth (Amaranth; post-emergence): 1.0; Average Herbicidal Effect, Amaranth (Amaranth; pre-emergence): 4.5; Average Herbicidal Effect, Silybum (Silybum; post-emergence): 2.0; Average Herbicidal Effect, Silybum (Silybum; pre-emergence): 2.0; Average Herbicidal Effect, Sinapis (Sinapis; post-emergence): 1.0; Average Herbicidal Effect, Sinapis (Sinapis; pre-emergence): 2.0; Average Herbicidal Effect, Chenopodium (Chenopodium; post-emergence): 1.0; Average Herbicidal Effect, Chenopodium (Chenopodium; pre-emergence): 1.5; Average Herbicidal Effect, Lentils (Lentils; post-emergence): 0.5; Average Herbicidal Effect, Lentils (Lentils; pre-emergence): 0.0
(2-bromophenyl)methyl(2,5-dichlorothiophen-3-yl)(difluoro)acetate [compound 5772] | Strong (0.01 mM) | strong (0.01 to 0.05) |  |  |  |  |  | 0.500 | moderate (0.5) | 
(4-bromophenyl)methyl(2,5-dichlorothiophen-3-yl)(difluoro)acetate [compound 5768] | Strong (0.01 mM) | moderate (0.5) |  |  |  |  |  | 0.500 | strong (0.01 to 0.05) | 
(6-bromopyridin-2-yl)methyl2-(2,5-dichlorothiophen-3-yl)-2,2-difluoroacetate [compound 5757] | Strong (0.01 mM) | strong (0.01 to 0.05) |  |  |  |  |  | 0.100 |  | 
(6-bromopyridin-2-yl)methyl(2,5-dichlorothiophen-3-yl)acetate [compound 5759] | very strong | strong (0.01 to 0.05) |  |  |  |  |  | 0.010 | strong (0.01 to 0.05) | 
ethyl(2,5-dichloro-1,3-thiazol-4-yl)(difluoro)acetate [compound 5655] | Strong (0.01 mM) | strong (0.01 to 0.05) |  |  |  |  |  | 1.000 | strong (0.01 to 0.05) | 
